This is an account of results in ChEMBL document CHEMBL5579896, “Discovery of 2-Aryl-4-aminoquinazolin-Based LSD1 Inhibitors to Activate Immune Response in Gastric Cancer” (J Med Chem, 2024).

The source made the active and inactive calls. No cut-off for these calls is given here.

Series [1] has as its system BGC-823. Description: Anticancer activity against human BGC-823 cells cocultured with human monocytes assessed as increase in CD3/CD28 activated T-cell killing response incubated for 5 days by microscopic analysis. Format: functional, cell-based. To be noted: dose 2-8 µM, time 5.0 day.
Series [2] deals with BGC-823. Description: Anticancer activity against LSD-1 knockout human BGC-823 cells cocultured with human monocytes assessed as increase in CD3/CD28 activated T-cell killing response at 2 to 8 uM incubated for 5 days by microscopic analysis. Format: functional, cell-based. To be noted: dose 2-8 µM, time 5.0 day.
Series [3] relates to MFC. Description: Antitumor activity against MFC cells implanted in mouse assessed as reduction in tumor growth at 10 to 40 mg/kg/day, po administered daily for 2 weeks and measured every 2 days. Format: functional, organism-based. To be noted: dose 10-40 mg/kg/day.
In series [4] the test system is MFC. Description: Antitumor activity against MFC cells implanted in mouse assessed as reduction in tumor size at 10 to 40 mg/kg/day, po administered daily for 2 weeks and measured every 2 days. Format: functional, organism-based. To be noted: dose 10-40 mg/kg/day.
Series [5] concerns MFC. Description: Antitumor activity against MFC cells implanted in mouse assessed as reduction in tumor weight at 10 to 40 mg/kg/day, po administered daily for 2 weeks and measured every 2 days. Format: functional, organism-based. The note with it: dose 10-40 mg/kg/day.
A short description of series [6]: Toxicity in mouse implanted with MFC assessed as reduction in body weight at 10 to 40 mg/kg/day, po administered daily for 2 weeks and measured every 2 days. Format: organism-based. The note with it: in vivo, 336 h, dose 10-40 mg/kg/day.
Series [7] can be described thus: Toxicity in mouse implanted with MFC assessed as heart damage at 10 to 40 mg/kg/day, po administered daily for 2 weeks and measured every 2 days by H and E staining based assay. Format: organism-based. To be noted: in vivo, 336 h, dose 10-40 mg/kg/day.
The nature of series [8]: Toxicity in mouse implanted with MFC assessed as liver damage at 10 to 40 mg/kg/day, po administered daily for 2 weeks and measured every 2 days by H and E staining based assay. Format: organism-based. To be noted: in vivo, 336 h, dose 10-40 mg/kg/day.
Series [9] in a line: Toxicity in mouse implanted with MFC assessed as spleen damage at 10 to 40 mg/kg/day, po administered daily for 2 weeks and measured every 2 days by H and E staining based assay. Format: organism-based. To be noted: in vivo, 336 h, dose 10-40 mg/kg/day.
Series [10] is described as follows: Toxicity in mouse implanted with MFC assessed as lung damage at 10 to 40 mg/kg/day, po administered daily for 2 weeks and measured every 2 days by H and E staining based assay. The note with it: in vivo, 336 h, dose 10-40 mg/kg/day. Format: organism-based.
Series [11] can be described thus: Toxicity in mouse implanted with MFC assessed as kidney damage at 10 to 40 mg/kg/day, po administered daily for 2 weeks and measured every 2 days by H and E staining based assay. To be noted: in vivo, 336 h, dose 10-40 mg/kg/day. Format: organism-based.
The test system of series [12] is MFC. Description: Antitumor activity against MFC cells implanted in mouse assessed as reduction in Ki67 expression at 10 to 40 mg/kg/day, po administered daily for 2 weeks and measured every 2 days. Format: functional, organism-based. The note with it: dose 10-40 mg/kg/day.
Series [13] deals with MFC. Description: Downregulation of PD-L1 expression in MFC cells implanted in mouse at 10 to 40 mg/kg/day, po administered daily for 2 weeks and measured every 2 days by Western blotting analysis. Format: functional, organism-based. The note with it: dose 10-40 mg/kg/day.
For series [14], the system named is MFC. Description: Antitumor activity against MFC cells implanted in mouse assessed as increase in infiltration of CD4+ cells at 10 to 40 mg/kg/day, po administered daily for 2 weeks and measured every 2 days by immunohistochemistry assay. Format: functional, organism-based. To be noted: dose 10-40 mg/kg/day.
Series [15] has as its system MFC. Description: Antitumor activity against MFC cells implanted in mouse assessed as increase in infiltration of CD8+ cells at 10 to 40 mg/kg/day, po administered daily for 2 weeks and measured every 2 days by immunohistochemistry assay. Format: functional, organism-based. To be noted: dose 10-40 mg/kg/day.
Series [16] can be described thus: Drug uptake in ICR mouse plasma at 40 mg/kg, po. To be noted: in vivo. Format: ADME, organism-based.
A short description of series [17]: Half-life in ICR mouse at 40 mg/kg, po measured upto 24 hrs by LC-MS/MS analysis. Format: ADME, organism-based. The note with it: in vivo.
Series [18] is described as follows: Cmax in ICR mouse at 40 mg/kg, po measured upto 24 hrs by LC-MS/MS analysis. Format: ADME, organism-based. The note with it: in vivo.
The nature of series [19]: AUC in ICR mouse at 40 mg/kg, po measured upto 24 hrs by LC-MS/MS analysis. Format: ADME, organism-based. The note with it: in vivo.

As a reminder, the half-life is the time in which the quantity being followed falls by half. A lower half-life goes with fast loss. By Cmax is commonly meant the peak of the concentration-time curve. As usually defined, the AUC is concentration integrated over time. Low values mean low exposure, high ones high exposure. `CCN(CC)c1ccc(Nc2nc(-c3ccc(S(C)(=O)=O)cc3)nc3ccccc23)cc1`: the Activity entry with BGC-823 [1] is “Dose-Dependent Effect”; in series [6] it was “Non-Toxic”; in series [7] it was “Non-Toxic”; in series [8], “Non-Toxic”; in series [9], “Non-Toxic”; in series [10] it was “Non-Toxic”. Besides, the Activity entry in [11] is reported as “Non-Toxic”. Besides, in the series with BGC-823 [2], the outcome was inactive. Moreover, the result in the series with MFC [3], with MFC [4], in the series on MFC [5], with MFC [12], in the series with MFC [13] and with MFC [14] was Active. For the same compound, in the series on MFC [15], the result was Active. In addition, the Drug uptake entry in series [16] is “Active”. Also, the half-life in [17] was 1.22 h. In series [18], this compound had a Cmax of 613 ng/mL. The same compound yielded an AUC at 24 h in [19] of 2250 ng·h/mL.
